# Assay results from patent US8466203B2, “Method of stabilizing human eye tissue by reaction with nitrite and related agents such as nitro compounds” (priority 2006, dated 2013).
# Several values for one entry are separate records, joined by “and”; a condition that tells them apart may be missing. Identical values can stand only once. Like-named read-outs stand apart in the source and are kept apart here.
# Columns and labels:
# porcine cornea = experiment: Light transmission of cross-linked corneo-scleral complexes; conditions: 10 mM, 96 hrs incubation
# Description: Following a 96 hrs incubation period at 10 mM, the corneo-scleral complexes were mounted between 2 pieces of quartz, previously determined to have no ultraviolet absorption. […] The sample was then mounted in a vertical, adjustable stage apparatus specifically designed to accommodate a PC 1000 Fibre Optic Spectrometer (Ocean Optics, Inc.). A xenon lamp was used as a light source and was connected to the upper half of the stage. The lower half was connected to a high sensitivity CCD mounted on a card which is installed in a PC computer. The CCD array detector captures a full wavelength spectrum (i.e. 200-1000 nm).
# The absorption spectrum for each sample was recorded and exported into Microcal Origin 6.1 for processing. […] The scattering component was subtracted from the observed absorption spectrum by first fitting the scattering (non-absorption) portion of the spectrum (e.g. 700-800 nm) to the formula A=aλ^b, where A is the absorbance, λ is the wavelength, b is the order of the relationship between absorbance and wavelength, and a is a constant. The background signal due to scattering for all other wavelengths is then estimated using the coefficients determined from the fit. […] After scatter correction, the transmission spectrum for each absorption spectrum was calculated according to the Beer-Lambert law (T=10^−A×100%), where T is the transmission and A is the absorbance at each wavelength. […]
# [1] = test system: bovine corneal endothelial cells; conditions: 48 hrs exposure
# ARPE-19 cells = test system: ARPE-19 cells
# Excerpt: A cytotoxicity study was undertaken to obtain an impression of the level of cellular tolerance to these compounds. For pilot experiments ARPE-19 cells were used. This is an immortal human retinal pigment epithelial cell line commonly used for experiments related to macular degeneration. In these pilot studies, the ARPE-19 cells serve as a surrogate for cytotoxicity experiments. Primary cultures of bovine corneal endothelial cells were also used in the cytotoxicity studies described. Bovine corneal cells have more direct relevance for evaluating potential cytotoxic effects during cross-linking of living eye tissue.
# ARPE-19 cells were grown to 80% confluence in 96 well tissue culture plates. The cells were then exposed to varying concentrations of NaNO2 and 2-nitroethanol in their culture medium and evaluated for cell death using trypan blue (TB) staining (0.4% for 5 min) after 24 hrs.
smiles,measurement,setting,value
O=[N+]([O-])CCO [2-nitroethanol],"decrease in light transmission, 400-500 nm blue light region",porcine cornea,3.6%
same,Apoptosis (Annexin V) staining,[1]; 0.1 mM,−
same,Apoptosis (Annexin V) staining,[1]; 0.5 mM,−
same,Apoptosis (Annexin V) staining,[1]; 0.75 mM,−
same,Apoptosis (Annexin V) staining,[1]; 1 mM,−
same,Apoptosis (Annexin V) staining,[1]; 2 mM,−
same,Apoptosis (Annexin V) staining,[1]; 3 mM,+
same,trypan blue (TB) uptake,"ARPE-19 cells; 1 mM, 24 hrs",no TB was taken up
same,trypan blue (TB) uptake,"ARPE-19 cells; 10 mM, 24 hrs",all of the cells took up TB
same,cytotoxic threshold,"ARPE-19 cells; 24 hrs, trypan blue",> 1 mM and 1 to 10 mM
same,highest tolerated level,ARPE-19 cells; ARPE-19,1 mM
same,tolerable level,ARPE-19 cells; ARPE-19,0.0091%
